For data set [1], the system named is Mus musculus. In words: Antiinflammatory activity in Swiss Webster mouse model of complete freund's adjuvant-induced paw edema assessed as reduction in paw edema at 2 mg/kg, ip administered 40 mins before CFA injection by plethysmometer analysis. The data set is classed as functional, organism-based.
Data set [2] relates to Mus musculus. In words: Antinociceptive activity in Swiss Webster mouse model of formalin-induced biphasic nociceptive response assessed as reduction in pain during late phase at 5 mg/kg, ip administered 40 mins before formalin injection and measured after 10 to 30 mins post formalin challenge. The data set is classed as functional, organism-based. Particulars: time 50-70 min.

In data set [3] the test system is Mus musculus. Briefly: Antinociceptive activity in Swiss Webster mouse model of formalin-induced biphasic nociceptive response assessed as reduction in pain during early phase at 5 mg/kg, ip administered 40 mins before formalin injection and measured after 10 mins post formalin challenge. The format is functional, organism-based. Particulars: time 50.0 min.
The test system of data set [4] is Mus musculus. Briefly: Antiinflammatory activity in ip dosed Swiss Webster mouse model of complete freund's adjuvant-induced paw edema assessed as reduction in paw edema when administered 40 mins before CFA injection by plethysmometer analysis. As to conditions: dose 12.5-50 mg/kg. The format is functional, organism-based.
The subject of data set [5] is Mus musculus. Briefly: Effect on motor performance in Swiss Webster mouse assessed as effect on relaxing or motor deficit at 100 mg/kg, ip measured up to 120 sec by rotarod test. The format is ADME, organism-based. Particulars: in vivo, 2 min.
For data set [6], the system named is J774. In words: Antiinflammatory activity against mouse J774 cells assessed as inhibition of LPS/IFNgamma-stimulated NO production at 0.097 to 1.56 uM incubated for 24 hrs bu Griess reagent based assay. Particulars: dose 0.097-1.56 µM. The data set is classed as functional, cell-based.
Data set [7] concerns J774. Briefly: Cytotoxicity against LPS and IFN-gamma stimulated mouse J774 cells at 0.39 to 25 uM incubated for 72 hrs by alamar blue dye based colorimetric plate analysis. The data set is classed as cell-based. As to conditions: j774, 72 h, dose 0.39-25 µM.
The subject of data set [8] is Mus musculus. In words: Antinociceptive activity in Swiss Webster mouse model of formalin-induced biphasic nociceptive response assessed as reduction in pain during early phase at 12.5 to 50 mg/kg, ip administered 40 mins before formalin injection and measured after 10 mins post formalin challenge. The data set is classed as functional, organism-based. As to conditions: dose 12.5-50 mg/kg, time 50.0 min.

For data set [9], the system named is Mus musculus. In words: Antinociceptive activity in ip dosed Swiss Webster mouse model of formalin-induced biphasic nociceptive response assessed as reduction in pain during late phase when administered 40 mins before formalin injection and measured after 10 to 30 mins post formalin challenge. The data set is classed as functional, organism-based. Particulars: dose 12.5-50 mg/kg, time 50-70 min.

Each structure is given as a SMILES string. Active and inactive are the calls of the source. The rule behind the calls is not given here.

`C[C@@H]1C[C@H]2[C@@H]3CCC4=CC(=O)C=C[C@]4(C)[C@@]3(F)[C@@H](O)C[C@]2(C)[C@@]1(O)C(=O)CO`: the result with Mus musculus [1] was Active.

As for `COc1ccc2c(c1)c(CC(=O)O)c(C)n2C(=O)c1ccc(Cl)cc1`, the result with Mus musculus [2] was Active. Besides, in the data set with Mus musculus [3], the outcome was inactive.

As for `CC(C)=CCC1(CC=C(C)C)C(=O)c2c(CC(C)C)cc(=O)oc2C(C(=O)CC(C)C)=C1O`, the Activity entry with Mus musculus [4] was “Dose-dependent effect”; in the data set with Mus musculus [5] it was “Non-Toxic”; with J774 [7] it was “Non-Toxic”; in the data set with Mus musculus [8], “Dose-dependent effect”. Also, in the data set on J774 [6], the inhibition result was “Active”. The result in the data set with Mus musculus [9] was inactive.

Regarding `CN1CC[C@]23c4c5ccc(O)c4O[C@H]2[C@@H](O)C=C[C@H]3[C@H]1C5`, the outcome in the data set on Mus musculus [2] and in the data set with Mus musculus [3] was Active.

These data come from ChEMBL document CHEMBL5055632, “Anti-Inflammatory and Antinociceptive Properties of Kielmeyerone A, a Chromenone Isolated from the Roots of Kielmeyera reticulata” (J Nat Prod, 2021).
